Our source for the IC50 values is patent publication US20160108039A1, “TRIAZOLOPYRIDINES AS THROMBIN INHIBITORS FOR THE TREATMENT OF THROMBOEMBOLIC DISEASES” (BAYER PHARMA AKTIENGESELLSCHAFT, priority 2013, published 2016).

The target in experiment [1] is T1, thrombin (Homo sapiens, UniProt P00734). As to the kind of experiment: Thrombin-inhibitory activity in plasma samples (ecarin-activated). Particulars: citrate plasma, ecarin activation, fluorogenic thrombin substrate; read at about 70% of maximum signal (about 12 min); in some cases means. Type of experiment: biochemical. On the procedure:
To determine the inhibition of thrombin in plasma samples, plasma prothrombinase is activated by ecarin. Thrombin activity and/or its inhibition by potential inhibitors is/are then measured fluorescently by addition of a substrate.
The substances to be tested are dissolved in various concentrations in dimethyl sulphoxide and diluted with water. In white 96-well flat-bottomed plates, 20 μl of substance dilution are mixed with 20 μl of ecarin solution (ecarin reagent, from Sigma E-0504, final concentration 20 mU per reaction) in Ca buffer (200 mM Hepes+560 mM sodium chloride+10 mM calcium chloride+0.4% PEG) or with 20 μl of Ca buffer (as unstimulated control). Furthermore, 20 μl of fluorogenic thrombin substrate (from Bachem 1-1120, final concentration 50 μmol/l) and 20 μl of citrate plasma (from Octapharma) are added, and the mixture is homogenized well. The plate is measured in a SpectraFluorplus Reader using a 360 nm excitation filter and a 465 nm emission filter every minute over 20 minutes. […] Representative activity data from this test are given in Table 2 below (in some cases as means of individual determinations): […]

Experiment [2] has as its target T1, thrombin. The experiment is described as follows: Measurement of the thrombin inhibition in buffer. In kind it is biochemical. The note with it: human thrombin 0.06 nmol/l in Tris buffer pH 7.4, 22° C., substrate Boc-Asp(OBzl)-Pro-Arg-AMC; in some cases means of individual determinations. In a few lines: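 Compound pre-incubated 15 min at 22° C with 0.06 nmol/l human thrombin in 50 mmol/l Tris, 100 mmol/l NaCl, 0.1% BSA, pH 7.4, then 5 μmol/l Boc-Asp(OBzl)-Pro-Arg-AMC added for 30 min. AMC fluorescence read at 360/460 nm against DMSO controls; IC50 from concentration–activity curves.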

On to `COc1cc(C(=O)N2CC3CCN3C(=O)C2C)cn2nc(NCc3cccc(Cl)c3)nc12` (single isomer, unassigned) [Example 61, 4-({2-[(3-Chlorobenzyl)amino]-8-methoxy[1,2,4]triazolo[1,5-a]pyridin-6-yl}carbonyl)-3-methyl-1,4-diazabicyclo[4.2.0]octan-2-one], for which the figures for the IC50 on thrombin [1] and against thrombin [2] were 17 nM and 23 nM, respectively.

In the case of `COc1cc(C(=O)N2CC(C)OCC2(C)CO)cn2nc(NCc3cccc(Cl)c3)nc12` (single isomer, unassigned) [Example 29, {2-[(3-Chlorobenzyl)amino]-8-methoxy[1,2,4]triazolo[1,5-a]pyridin-6-yl}[5-(hydroxymethyl)-2,5-dimethylmorpholin-4-yl]methanone], the IC50 at thrombin [1] was determined as 67 nM; against thrombin [2], 54 nM.

Consider `COCC1COC(C)(CCO)CN1C(=O)c1cc(OC)c2nc(NCc3cccc(Cl)c3)nn2c1` (single isomer, unassigned) [Example 72, {2-[(3-Chlorobenzyl)amino]-8-methoxy[1,2,4]triazolo[1,5-a]pyridin-6-yl}[2-(2-hydroxyethyl)-5-(methoxymethyl)-2-methylmorpholin-4-yl]methanone], for which the IC50 was found to be 34 nM against thrombin [1] and 13 nM at thrombin [2].

With `COCC1C(=O)N2CCC2CN1C(=O)c1cc(OC)c2nc(NCc3cccc(Cl)c3)nn2c1` (single isomer, unassigned) [Example 60, 4-({2-[(3-Chlorobenzyl)amino]-8-methoxy[1,2,4]triazolo[1,5-a]pyridin-6-yl}carbonyl)-3-(methoxymethyl)-1,4-diazabicyclo[4.2.0]octan-2-one], the IC50 at thrombin [1] stood at 23 nM; against thrombin [2] it was 26 nM.

In the case of `COc1cc(C(=O)N2CC(C)(CC(C)O)OC[C@H]2C)cn2nc(NCc3cccc(Cl)c3)nc12` (single isomer, unassigned) [Example 41], the IC50 on thrombin [1] is 4.1 nM; at thrombin [2], 1.3 nM.

Take `COc1cc(C(=O)N2CC(C)(CC(C)O)OCC2(C)C)cn2nc(NCc3cccc(Cl)c3)nc12` (single isomer, unassigned) [Example 36, {2-[(3-Chlorobenzyl)amino]-8-methoxy[1,2,4]triazolo[1,5-a]pyridin-6-yl}[2-(2-hydroxypropyl)-2,5,5-trimethylmorpholin-4-yl]methanone]: the IC50 is 325 nM against thrombin [1] and 54 nM against thrombin [2].

Take `COc1cc(C(=O)N2CC(C)OCC23CC(O)C3)cn2nc(NC(CF)c3cccc(Cl)c3)nc12` (single isomer, unassigned) [Example 25, (2-{[1-(3-Chlorophenyl)-2-fluoroethyl]amino}-8-methoxy[1,2,4]triazolo[1,5-a]pyridin-6-yl) [(trans)-2-hydroxy-7-methyl-8-oxa-5-azaspiro[3.5]non-5-yl]methanone]: the values for the 50% inhibitory concentration (IC50) against thrombin [1] and at thrombin [2] were 55 nM and 28 nM, respectively.

For the molecule `COc1cc(C(=O)N2CC3CCN3C(=O)C2C)cn2nc(N[C@H](C)c3cccc(Cl)c3)nc12` (single isomer, unassigned) [Example 1], the half-maximal inhibitory concentration (IC50) on thrombin [1] is 33 nM; on thrombin [2], 34 nM.

`COc1cc(C(=O)N2CC(C)(CCO)OCC2CF)cn2nc(NCc3cccc(Cl)c3)nc12` (single isomer, unassigned) [Example 54, {2-[(3-Chlorobenzyl)amino]-8-methoxy[1,2,4]triazolo[1,5-a]pyridin-6-yl}[5-(fluoromethyl)-2-(2-hydroxyethyl)-2-methylmorpholin-4-yl]methanone]: the figures for the IC50 on thrombin [1] and at thrombin [2] were 611 nM and 100 nM, respectively.

Regarding `COc1cc(C(=O)N2CC(C)CCC2CCO)cn2nc(NCc3cccc(Cl)c3)nc12` (stereo not drawn) [Example 64, {2-[(3-Chlorobenzyl)amino]-8-methoxy[1,2,4]triazolo[1,5-a]pyridin-6-yl}[2-(2-hydroxyethyl)-5-methylpiperidin-1-yl]methanone], the IC50 at thrombin [1] was 63 nM; against thrombin [2], 25 nM.

On to `COc1cc(C(=O)N2CC(C)OCC2(C)CO)cn2nc(NCc3cccc(Cl)c3)nc12` (single isomer, unassigned) [Example 30, {2-[(3-Chlorobenzyl)amino]-8-methoxy[1,2,4]triazolo[1,5-a]pyridin-6-yl}[5-(hydroxymethyl)-2,5-dimethylmorpholin-4-yl]methanone], for which the IC50 against thrombin [1] worked out at 51 nM; on thrombin [2], 45 nM.

Take `COCC1COC(C)(CCO)CN1C(=O)c1cc(OC)c2nc(NCc3cccc(Cl)c3)nn2c1` (stereo not drawn) [Example 71, {2-[(3-Chlorobenzyl)amino]-8-methoxy[1,2,4]triazolo[1,5-a]pyridin-6-yl}[2-(2-hydroxyethyl)-5-(methoxymethyl)-2-methylmorpholin-4-yl]methanone]: the results for the IC50 on thrombin [1] and on thrombin [2] were 87 nM and 35 nM, respectively.

Take `COc1cc(C(=O)N2CC(C)OCC23CC(O)C3)cn2nc(NC(CF)c3cccc(Cl)c3)nc12` (single isomer, unassigned) [Example 22, (2-{[1-(3-Chlorophenyl)-2-fluoroethyl]amino}-8-methoxy[1,2,4]triazolo[1,5-a]pyridin-6-yl)[(cis)-2-hydroxy-7-methyl-8-oxa-5-azaspiro[3.5]non-5-yl]methanone]: the IC50 on thrombin [1] amounted to 86 nM; against thrombin [2], 26 nM.

As to `COc1cc(C(=O)N2CC(C)(CCO)OCC2(C)C)cn2nc(NCc3cccc(Cl)c3)nc12` (single isomer, unassigned) [Example 33, {2-[(3-Chlorobenzyl)amino]-8-methoxy[1,2,4]triazolo[1,5-a]pyridin-6-yl}[2-(2-hydroxyethyl)-2,5,5-trimethylmorpholin-4-yl]methanone], the IC50 against thrombin [1] came out at 11 nM; at thrombin [2] it was 4.5 nM.

Regarding `COCC1COC(C)(C)CN1C(=O)c1cc(OC)c2nc(NCc3cccc(Cl)c3)nn2c1` (racemic) [Example 11, {2-[(3-Chlorobenzyl)amino]-8-methoxy[1,2,4]triazolo[1,5-a]pyridin-6-yl}[5-(methoxymethyl)-2,2-dimethylmorpholin-4-yl]methanone], the half-maximal inhibitory concentration (IC50) at thrombin [1] is 64 nM; at thrombin [2] it was 63 nM.

`COc1cc(C(=O)N2CC(C)(CCO)OCC2C(F)F)cn2nc(NCc3cccc(Cl)c3)nc12` (single isomer, unassigned) [Example 55, {[(3-Chlorobenzyl)amino]-8-methoxy[1,2,4]triazolo[1,5-a]pyridin-6-yl}[5-(difluoromethyl)-2-(2-hydroxyethyl)-2-methylmorpholin-4-yl]methanone]: the IC50 against thrombin [1] worked out at 65 nM; at thrombin [2] it was 9.6 nM.

Take `COc1cc(C(=O)N2CC(C)OCC23CC(O)C3)cn2nc(NCc3cccc(Cl)c3)nc12` (single isomer, unassigned) [Example 20, {2-[(3-Chlorobenzyl)amino]-8-methoxy[1,2,4]triazolo[1,5-a]pyridin-6-yl}[(cis)-2-hydroxy-7-methyl-8-oxa-5-azaspiro[3.5]non-5-yl]methanone]: the results for the half-inhibitory concentration (IC50) against thrombin [1] and against thrombin [2] were 70 nM and 35 nM, respectively.

As for `COc1cc(C(=O)N2CC(C)(C)OCC2CF)cn2nc(NCc3cccc(Cl)c3)nc12` (single isomer, unassigned) [Example 14, {2-[(3-Chlorobenzyl)amino]-8-methoxy[1,2,4]triazolo[1,5-a]pyridin-6-yl}[5-(fluoromethyl)-2,2-dimethylmorpholin-4-yl]methanone], the IC50 is 57 nM against thrombin [1] and 24 nM at thrombin [2].

For the molecule `COc1cc(C(=O)N2CC(C)(CC(C)O)OCC2(C)C)cn2nc(NCc3cccc(Cl)c3)nc12` (single isomer, unassigned) [Example 34, {2-[(3-Chlorobenzyl)amino]-8-methoxy[1,2,4]triazolo[1,5-a]pyridin-6-yl}[2-(2-hydroxypropyl)-2,5,5-trimethylmorpholin-4-yl]methanone], the results for the IC50 on thrombin [1] and against thrombin [2] were 19 nM and 3.9 nM, respectively.

Consider `COc1cc(C(=O)N2CC(C)(CC(C)O)OCC2(C)C)cn2nc(NCc3cccc(Cl)c3)nc12` (single isomer, unassigned) [Example 35, {2-[(3-Chlorobenzyl)amino]-8-methoxy[1,2,4]triazolo[1,5-a]pyridin-6-yl}[2-(2-hydroxypropyl)-2,5,5-trimethylmorpholin-4-yl]methanone], for which the IC50 on thrombin [1] stood at 8.7 nM; against thrombin [2], 2.4 nM.

For `COc1cc(C(=O)N2CC(C)OCC23CC(O)C3)cn2nc(NC(CF)c3cccc(Cl)c3)nc12` (single isomer, unassigned) [Example 23, (2-{[1-(3-Chlorophenyl)-2-fluoroethyl]amino}-8-methoxy[1,2,4]triazolo[1,5-a]pyridin-6-yl)[(cis)-2-hydroxy-7-methyl-8-oxa-5-azaspiro[3.5]non-5-yl]methanone], the IC50 at thrombin [1] is 34 nM; on thrombin [2], 29 nM.

Usually IC50 stands for the concentration that inhibits the measured activity by half. Read a high IC50 as weaker potency in that assay.
